Where two headings read alike, the source gives them in different places.
Assays:
[1] = test system: dogs with chronic renal failure; experiment: Therapeutic effect on dogs with chronic renal failure (blood creatinine); format: in vivo, dog; conditions: change before/after
Description: An experiment was conducted to determine the therapeutic effect and optimal dosage of 5-hydroxy-1-methylimidazolidine-2,4-dione in animal kidney disease. Dogs (5 dogs per group) diagnosed with chronic renal failure and with a blood creatinine concentration of 1.4 mg/dL or higher were treated with 5-hydroxy-methylimidazolidine-2,4-dione at […] of 0, 12.5, 25, 50, and 100 mg/kg for 2 months, and the change in blood creatinine concentration (AsCr) before and after administration was determined.

[2] = Pharmacokinetic analysis in beagles after oral administration; format: in vivo, beagle; conditions: for Cmax / AUC(0-inf) / AUC(0-t) / half-life / Tmax: beagle, dog, plasma, mean; for Cmax: po, read-out: Cmax (average highest plasma concentration); for Tmax: read-out: tmax (time of highest plasma concentration)
Description: For this purpose, 5-hydroxy-1-methylimidazolidine-2,4-dione was weighed, based on the fasting weight measured on the day of administration, using an electronic scale in accordance with the oral doses of 10, 50, 100, and 200 mg/kg for each experimental group, and was added to a 500 ml glass container, DW (distilled water) was added as an excipient, and the drug was dissolved therein through vortexing and stirring. Then, the beagles used in the subsequent experiments were acclimatized and environmentally adapted for about a week before the test, and then the compound was orally administered to each beagle at the doses listed in the table below. In addition, the beagles used in this experiment were bred and kept at the Endik Institute.
The compound was administered orally, blood was collected in a volume of 3 ml using a syringe from the jugular vein of the experimental beagle at each time (0 (before administration), 0.25, 0.5, 1, 1.5, 2, 4, 8, 12, and 24 hours), the collected blood was centrifuged at 4,000 rpm/10 minutes at 4° C. and dispensed into 500 μl of a set of two separate 1.5 ml tubes, and the remaining plasma was dispensed into another set and immediately stored in a deep freezer at −70° C. until analysis. The concentration of 5-hydroxy-1-methylimidazolidine-2,4-dione in the collected plasma was measured using the following method.
First, a standard sample solution for preparing a calibration curve was prepared. 1.2 mg of standard 5-hydroxy-1-methylimidazolidine-2,4-dione was dissolved in 0.12 ml of DMSO to prepare a stock solution having a final concentration of 10 mg/ml. Then, the stock solution was diluted to a final concentration of 500, 1,000, 2,000, 5,000, 10,000, 30,000, 100,000, 300,000, and 1,000,000 ng/ml with 70% acetonitrile as a solvent. Then, for an internal standard sample solution, 5.0 mg of 4-methylumbelliferone was dissolved in acetonitrile to prepare a final stock solution of 5 mg/ml, which was then diluted with acetonitrile to obtain a final concentration of 200 ng/ml.
To prepare a calibration curve using each solution prepared above, standard 5-hydroxy-1-methylimidazolidine-2,4-dione was dissolved in DMSO to prepare a 10 mg/ml standard stock solution and then the standard stock solution was frozen at −20° C., and the prepared standard stock solution was diluted with 70% acetonitrile to prepare a working solution. The working solution was diluted with blank plasma stored frozen below −20° C. (working standard solution 10%, blank plasma 90%) to prepare standard plasma to adjust the concentration of analyte in plasma to […]. 20 μl of each standard plasma was placed in a 1.5 ml micro-tube and then 180 μl of internal standard solution (200 ng/ml in ACN) was added thereto. After vortexing for 5 minutes, centrifugation was performed at 4° C. and 17,600×g for 5 minutes. 150 μl of the supernatant was transferred to a 300 μl screw vial, 5 μl of the supernatant was injected into the HPLCMS/MS system, and a calibration curve was plotted at the ratio of the peak area of the analyte to the obtained peak area of the internal standard.
Then, the plasma sample collected from the beagle was subjected to the following pretreatment for assay. 180 μl of the internal standard solution was added to 20 μl of the plasma sample to induce protein precipitation. Then, the mixed sample was suspended using a vortex mixer for 5 minutes, centrifuged at 17,600×g for 5 minutes, and 150 μl of the supernatant was transferred to an analysis container. Then, 5 μl of the supernatant was injected into a HPLC/MS/MS system and analysis was performed. The instruments used for analysis were an HPLC system (Agilent 1100 Series with on-line degasser, binary pump, thermostatted well-plate autosampler and column compartment) and an MS/MS system (SCIEX 4000 QTRAP System). […]

beagles = experiment: 13-week repeated oral toxicity: observation of general symptoms; format: in vivo; conditions: repeated oral once a day for 13 weeks
Description: Furthermore, the present inventors performed a toxicity test on 5-hydroxy-1-methylimidazolidine-2,4-dione in beagles. Toxicity tests were conducted based on single oral administration and repeated oral administration for 13 weeks. The stability of the compound was analyzed by evaluating the analysis items including clinical symptoms, weight, feed intake, blood test, urine and eye test during the administration period.
General symptoms (such as vomiting, salivation, diarrhea, and abnormal behavior) and death were observed daily during the 13-week test period, starting from the day before administration, and abnormalities were recorded in clinical symptoms.

[3] = oral G3 (100 ng/kg [sic]; text 100 mg/kg)

Which ΔsCr ([1]; high-dose 50 mg/kg for 2 months, 50 mg/kg) does the source give for `CN1C(=O)NC(=O)C1O` (centres unmarked) [KBP-001, 5-hydroxy-1-methylimidazolidine-2,4-dione] here?
The ΔsCr was -0.02 ± 0.22 mg/dL.

And the ΔsCr ([1]; high-dose 50 mg/kg for 2 months, listed as 5-hydroxy-1-methylimidazolidine-2,4-dione, 50 mg/kg)?
Its ΔsCr is -0.02 ± 0.22 mg/dL.

What about the ΔsCr ([1]; highest-dose 100 mg/kg for 2 months, 100 mg/kg) of the same molecule?
The ΔsCr was 0.07 ± 0.20 mg/dL.

And the ΔsCr ([1]; highest-dose 100 mg/kg for 2 months, listed as 5-hydroxy-1-methylimidazolidine-2,4-dione, 100 mg/kg)?
The ΔsCr was 0.07 ± 0.20 mg/dL.

What about the ΔsCr ([1]; low-dose 12.5 mg/kg for 2 months, 12.5 mg/kg) of the same molecule?
Its ΔsCr is 0.58 ± 0.49 mg/dL.

And the ΔsCr ([1]; low-dose 12.5 mg/kg for 2 months, listed as 5-hydroxy-1-methylimidazolidine-2,4-dione, 12.5 mg/kg)?
Its ΔsCr is 0.58 ± 0.49 mg/dL.

And the ΔsCr ([1]; medium-dose 25 mg/kg for 2 months, 25 mg/kg)?
The ΔsCr was 0.10 ± 0.34 mg/dL.

What about the ΔsCr ([1]; medium-dose 25 mg/kg for 2 months, listed as 5-hydroxy-1-methylimidazolidine-2,4-dione, 25 mg/kg) of the same molecule?
The ΔsCr was 0.10 ± 0.34 mg/dL.

What about the Cmax ([2]; 10 mg/kg, oral 10 mg/kg (G1)) of the same molecule?
Its Cmax is 15 µg/mL.

And the Cmax ([2]; 100 mg/kg, oral G3 (100 ng/kg [sic]; text 100 mg/kg))?
Its Cmax is 102 µg/mL.

What about the Cmax ([2]; 200 mg/kg, oral 200 mg/kg (G4)) of the same molecule?
The Cmax was 233 µg/mL.

And the AUC(0-inf) ([2]; oral 10 mg/kg (G1))?
Its AUC(0-inf) is 66.2 µg·h/mL.

And the AUC(0-t) ([2]; oral 10 mg/kg (G1))?
Its AUC(0-t) is 65.4 µg·h/mL.

And the half-life ([2]; oral 10 mg/kg (G1))?
The half-life was 2.89 h.

What about the Tmax ([2]; oral 10 mg/kg (G1)) of the same molecule?
Its Tmax is 0.6 h.

And the AUC(0-inf) ([2]; oral 50 mg/kg (G2))?
Its AUC(0-inf) is 289 µg·h/mL.

What about the AUC(0-t) ([2]; oral 50 mg/kg (G2)) of the same molecule?
Its AUC(0-t) is 288 µg·h/mL.

And the half-life ([2]; oral 50 mg/kg (G2))?
Its half-life is 2.8 h.

What about the Tmax ([2]; oral 50 mg/kg (G2)) of the same molecule?
The Tmax was 0.35 h.

What about the AUC(0-inf) ([2]; oral 200 mg/kg (G4)) of the same molecule?
Its AUC(0-inf) is 1120 µg·h/mL.

What about the AUC(0-t) ([2]; oral 200 mg/kg (G4)) of the same molecule?
Its AUC(0-t) is 1110 µg·h/mL.

What about the half-life ([2]; oral 200 mg/kg (G4)) of the same molecule?
The half-life was 2.9 h.

And the Tmax ([2]; oral 200 mg/kg (G4))?
Its Tmax is 0.45 h.

What about the AUC(0-inf) [2, 3] of the same molecule?
The AUC(0-inf) was 468 µg·h/mL.

What about the AUC(0-t) [2, 3] of the same molecule?
Its AUC(0-t) is 466 µg·h/mL.

What about the half-life [2, 3] of the same molecule?
The half-life was 2.97 h.

And the Tmax [2, 3]?
Its Tmax is 0.8 h.

And the adverse reactions ([2]; single oral 10, 50, 100, 200 mg/kg, until end of PK test)?
The adverse reactions was “no adverse reactions were observed”.

And the “general symptoms and deaths” value (beagles)?
Its value is “no unusual symptoms (vomiting, salivation, diarrhea, behavioral abnormalities, etc.) or deaths occurred”.

Reference: patent US20240299359A1, “PHARMACEUTICAL COMPOSITION FOR ANIMALS CONTAINING 5-HYDROXY-METHYLIMIDAZOLIDINE-2,4-DIONE COMPOUND AS ACTIVE INGREDIENT” (KYONGBO PHARM. CO., LTD., priority 2021, published 2024)
